# Legend:
# [1] = molecular target: T1, M1 (h) (Homo sapiens, UniProt P11229); experiment: CEREP panel M1 (h) antagonist effect, intracellular Ca2+ fluorimetry; assay type: cell-based; conditions: HCl salt tested; CHO cells, acetylcholine (10 nM)
# T1 construct: expressed in transfected cells; host or cells: CHO cells
# T1 sequence (P11229 1-460): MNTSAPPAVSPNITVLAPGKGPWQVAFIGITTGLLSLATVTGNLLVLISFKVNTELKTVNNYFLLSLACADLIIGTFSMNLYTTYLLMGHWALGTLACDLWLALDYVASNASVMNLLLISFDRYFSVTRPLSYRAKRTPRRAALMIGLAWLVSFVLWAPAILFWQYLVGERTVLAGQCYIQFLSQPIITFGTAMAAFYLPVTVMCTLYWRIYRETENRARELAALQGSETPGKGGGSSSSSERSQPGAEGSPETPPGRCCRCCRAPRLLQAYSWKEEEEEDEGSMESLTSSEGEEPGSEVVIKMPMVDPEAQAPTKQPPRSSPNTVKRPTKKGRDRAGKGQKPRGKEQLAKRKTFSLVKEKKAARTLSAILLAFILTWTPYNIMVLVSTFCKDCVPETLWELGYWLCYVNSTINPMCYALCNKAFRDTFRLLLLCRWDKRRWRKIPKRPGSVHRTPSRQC
# Source text: (§1) The use of in vitro pharmacological screening against a diverse range of targets (receptors, ion channels, enzymes and transporters) is used to identify undesirable off-target activity that may cause adverse drug reactions in humans. Screening panels (e.g. SafetyScreen44™ Panel, Eurofins) comprise a selection of off-targets linked with known issues in humans that could hinder or halt the development of drug candidates or market withdrawal if discovered after a drug is approved. The HCl salts of the S enantiomer and the R enantiomer of compound A were tested against a panel of such targets.
# (§2) The tests were carried out according to the methods described in the following tables and indicated literature references.
# [2] = molecular target: PKN1/PRK1 (Homo sapiens, UniProt Q16512); experiment: Kinase panel 33P-ATP filter assay, PKN1/PRK1; assay type: biochemical; conditions: HCl salt tested; ATP Conc. 15 μM (Km); read-out: Compound IC50 (nM) PKN1/PRK1
# Chain of PKN1/PRK1 (Q16512 whole entry): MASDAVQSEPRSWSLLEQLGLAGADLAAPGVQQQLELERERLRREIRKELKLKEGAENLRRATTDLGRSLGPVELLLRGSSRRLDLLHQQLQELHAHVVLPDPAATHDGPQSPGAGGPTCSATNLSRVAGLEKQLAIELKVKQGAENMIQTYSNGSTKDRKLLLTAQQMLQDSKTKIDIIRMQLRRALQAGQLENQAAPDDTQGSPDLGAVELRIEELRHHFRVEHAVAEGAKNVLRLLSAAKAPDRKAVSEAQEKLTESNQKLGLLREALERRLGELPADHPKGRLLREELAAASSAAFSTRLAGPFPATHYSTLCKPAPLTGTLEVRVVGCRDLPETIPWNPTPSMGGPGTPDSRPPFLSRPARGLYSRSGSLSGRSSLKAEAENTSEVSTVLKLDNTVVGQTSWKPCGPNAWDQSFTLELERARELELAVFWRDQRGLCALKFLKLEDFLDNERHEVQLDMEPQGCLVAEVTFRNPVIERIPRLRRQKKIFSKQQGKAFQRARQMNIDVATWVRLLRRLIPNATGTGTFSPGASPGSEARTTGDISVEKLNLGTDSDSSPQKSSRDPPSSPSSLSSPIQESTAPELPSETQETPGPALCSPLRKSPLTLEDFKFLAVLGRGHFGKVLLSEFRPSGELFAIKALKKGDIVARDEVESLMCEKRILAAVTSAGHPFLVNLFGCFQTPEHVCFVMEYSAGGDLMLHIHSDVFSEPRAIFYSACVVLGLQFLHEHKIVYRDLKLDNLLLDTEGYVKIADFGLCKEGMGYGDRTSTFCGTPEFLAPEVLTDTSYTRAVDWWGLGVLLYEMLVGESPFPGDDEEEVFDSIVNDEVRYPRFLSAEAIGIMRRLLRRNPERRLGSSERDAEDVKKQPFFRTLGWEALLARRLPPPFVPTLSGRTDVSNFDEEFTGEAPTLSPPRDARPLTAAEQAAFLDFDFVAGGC
# Protocol: (§3) The HCl salts of S enantiomer and the R enantiomer of compound A were tested against a panel of kinases.
# (§4) Compounds were received as powder and resuspended to 10 mM DMSO stock. Compounds were tested in 10-dose IC50 mode with a 3-fold serial dilution starting at 10 μM. Control compound, staurosporine, was tested in 10-dose IC50 mode with 4-fold serial dilution starting at 20 μM.
# (§5) Reaction Conditions: Buffer Conditions: 20 mM HEPES ((4-(2-hydroxyethyl)-1-piperazineethanesulfonic acid; pH 7.5), 10 mM MgCl2, 1 mM EGTA (Ethyleneglycol-bis(p-aminoethyl)-N,N,N′,N′-tetraacetic Acid), 0.01% Brij35, 0.02 mg/ml BSA (Bovine serum albumin), 0.1 mM Na3VO4, 2 mM DTT (Dithiothreitol), 1% DMSO. Reaction Procedure: 1. Prepare indicated substrate in freshly prepared reaction buffer. 2. Deliver required cofactors to the substrate solution above. 3. Deliver indicated kinase into the substrate solution and mix gently. 4. Deliver compounds in DMSO into the kinase reaction mixture utilizing acoustic technology (Echo550). 5. Deliver ^33P-ATP (specific activity 0.01 μCi/μl final) into the reaction mixture to initiate the reaction. 6. Incubate kinase reaction for 120 minutes at room temperature. 7. […] Data Analysis: Kinase activity data were expressed as the percent remaining kinase activity in test samples compared to vehicle (dimethyl sulfoxide) reactions. […]
# [3] = molecular target: T2, PKCepsilon (Homo sapiens, UniProt Q02156); experiment: Kinase panel 33P-ATP filter assay, PKCepsilon; assay type: biochemical; conditions: HCl salt tested; ATP Conc. 10 μM (Km); read-out: Compound IC50 (nM) PKCepsilon
# T2 sequence (Q02156 1-737): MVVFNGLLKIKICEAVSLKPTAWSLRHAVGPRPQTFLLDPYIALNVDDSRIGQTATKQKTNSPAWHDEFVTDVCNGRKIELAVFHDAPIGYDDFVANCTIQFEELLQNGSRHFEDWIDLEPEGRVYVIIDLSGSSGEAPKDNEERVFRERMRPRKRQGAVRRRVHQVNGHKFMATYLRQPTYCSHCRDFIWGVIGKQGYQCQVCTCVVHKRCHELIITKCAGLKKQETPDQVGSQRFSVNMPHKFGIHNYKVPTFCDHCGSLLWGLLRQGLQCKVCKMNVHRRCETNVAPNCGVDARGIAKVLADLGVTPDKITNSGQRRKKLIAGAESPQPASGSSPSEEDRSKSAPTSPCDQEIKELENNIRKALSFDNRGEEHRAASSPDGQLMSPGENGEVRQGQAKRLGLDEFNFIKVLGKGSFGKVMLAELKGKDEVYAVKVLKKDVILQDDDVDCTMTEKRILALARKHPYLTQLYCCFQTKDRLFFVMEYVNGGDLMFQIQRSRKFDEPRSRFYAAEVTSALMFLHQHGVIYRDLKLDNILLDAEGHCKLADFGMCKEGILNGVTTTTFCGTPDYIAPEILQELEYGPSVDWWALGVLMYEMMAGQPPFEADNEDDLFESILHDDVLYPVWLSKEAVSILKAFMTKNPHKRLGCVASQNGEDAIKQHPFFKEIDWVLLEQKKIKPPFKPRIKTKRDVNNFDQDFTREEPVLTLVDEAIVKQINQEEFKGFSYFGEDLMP
# Protocol: as §3, §4, §5
# [4] = molecular target: T3, M2 (h) (Homo sapiens, UniProt P08172); experiment: CEREP panel M2 (h) antagonist effect, cAMP HTRF; assay type: cell-based; conditions: HCl salt tested; CHO cells, acetylcholine (300 nM)
# T3 construct: expressed in transfected cells; host or cells: CHO cells
# T3 sequence (P08172 1-466): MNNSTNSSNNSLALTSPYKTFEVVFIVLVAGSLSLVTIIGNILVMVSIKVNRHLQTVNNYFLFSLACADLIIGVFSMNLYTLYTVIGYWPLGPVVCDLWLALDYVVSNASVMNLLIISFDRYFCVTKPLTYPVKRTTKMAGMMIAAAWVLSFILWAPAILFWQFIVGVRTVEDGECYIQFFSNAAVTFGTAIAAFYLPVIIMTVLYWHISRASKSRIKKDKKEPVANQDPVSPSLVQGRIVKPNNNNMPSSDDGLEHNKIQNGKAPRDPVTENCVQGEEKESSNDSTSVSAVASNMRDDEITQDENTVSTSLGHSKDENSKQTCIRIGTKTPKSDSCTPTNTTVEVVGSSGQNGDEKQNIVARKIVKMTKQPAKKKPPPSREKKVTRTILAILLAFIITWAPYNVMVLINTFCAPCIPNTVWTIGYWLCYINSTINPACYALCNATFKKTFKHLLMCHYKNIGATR
# Source text: as §1, §2
# [5] = molecular target: T4, CB1 (h) (Homo sapiens, UniProt P21554); experiment: CEREP panel CB1 (h) antagonist effect, cAMP HTRF; assay type: cell-based; conditions: HCl salt tested; CHO cells, CP 55940 (1 nM)
# T4 construct: expressed in transfected cells; host or cells: CHO cells
# T4 sequence (P21554 whole entry): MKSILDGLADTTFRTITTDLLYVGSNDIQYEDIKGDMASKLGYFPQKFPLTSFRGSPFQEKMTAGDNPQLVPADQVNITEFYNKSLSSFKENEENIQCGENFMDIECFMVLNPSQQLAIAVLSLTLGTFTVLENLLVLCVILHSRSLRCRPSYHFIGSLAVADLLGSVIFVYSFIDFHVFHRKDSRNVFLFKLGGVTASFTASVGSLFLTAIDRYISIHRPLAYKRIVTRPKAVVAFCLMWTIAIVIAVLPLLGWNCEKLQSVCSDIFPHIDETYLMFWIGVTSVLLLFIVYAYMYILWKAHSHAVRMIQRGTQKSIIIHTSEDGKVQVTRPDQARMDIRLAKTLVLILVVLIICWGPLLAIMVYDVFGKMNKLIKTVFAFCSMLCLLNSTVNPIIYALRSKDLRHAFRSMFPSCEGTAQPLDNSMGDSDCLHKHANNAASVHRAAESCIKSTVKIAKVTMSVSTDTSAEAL
# Source text: as §1, §2
# [6] = molecular target: T5, μ (MOP) (h) (Homo sapiens, UniProt P35372); experiment: CEREP panel mu (MOP) (h) antagonist effect, cAMP HTRF; assay type: cell-based; conditions: HCl salt tested; CHO cells, DAMGO (10 nM)
# T5 construct: expressed in transfected cells; host or cells: CHO cells
# T5 sequence (P35372 whole entry): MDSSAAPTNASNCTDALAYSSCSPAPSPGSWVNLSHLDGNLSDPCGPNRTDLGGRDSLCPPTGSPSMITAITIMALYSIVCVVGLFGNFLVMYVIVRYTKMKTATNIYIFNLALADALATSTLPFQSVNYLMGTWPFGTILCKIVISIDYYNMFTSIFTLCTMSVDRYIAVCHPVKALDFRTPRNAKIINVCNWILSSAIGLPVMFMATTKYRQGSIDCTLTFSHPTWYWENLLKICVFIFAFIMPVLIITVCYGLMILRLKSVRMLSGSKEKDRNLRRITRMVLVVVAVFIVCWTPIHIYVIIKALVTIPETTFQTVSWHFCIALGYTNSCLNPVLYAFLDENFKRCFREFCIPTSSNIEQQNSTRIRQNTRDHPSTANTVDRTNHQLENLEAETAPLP
# Source text: as §1, §2
IC50 [1],IC50 [2],IC50 [3],IC50 [4],CB1 (h) (antagonist effect) (IC50) [5],mu (MOP) (h) (antagonist effect) (IC50) [6],Structure (SMILES)
> 30000 nM,8.5 nM,6.7 nM,> 100000 nM,Inactive,Inactive,NCc1ccc(C(=O)Nc2ccncc2F)cc1-c1cccc(C(=O)Nc2ccc(SC[C@H]3CCOC3=O)cc2)c1 [S-enantiomer]
770 nM,7.9 nM,2.9 nM,6200 nM,Inactive,Inactive,NCc1ccc(C(=O)Nc2ccncc2F)cc1-c1cccc(C(=O)Nc2ccc(SC[C@@H]3CCOC3=O)cc2)c1 [R-enantiomer]
